Patent US20070117770A1, “Human ribosomal DNA (rDNA) and ribosomal RNA (rRNA) nucleic acids and uses thereof” (Cylene Pharmaceuticals, Inc., priority 2005, published 2007)

Assays:
TrkB(h) = TrkB(h) (Homo sapiens, UniProt Q16620); experiment: Protein kinase inhibition assay; type: biochemical; conditions: read-out: percent residual activity of TrkB(h)
Description: (§1) Certain compounds were tested for activity in protein kinase inhibition assays. All substrates were dissolved and diluted to working stocks in de-ionized water, apart from histone H1 (10× working stock in 20 mM MOPS pH 7.0), PDKtide (10× working stock in 50 mM Tris pH 7.0) ATF2 (which is typically stored at a 20× working stock in 50 mM Tris pH 7.5, 150 mM NaCl, 0.1 mM EGTA, 0.03% Brij-35, 50% glycerol, 1 mM benzamidine, 0.2 mM PMSF and 0.1% R-mercaptoethanol), KKLNRTLSFAEPG (SEQ ID NO:203) and RRRLSFAEPG (SEQ ID NO:204) (50 mM HEPES pH 7.4) and GGEEEEYFELVKKKK (SEQ ID NO:205) (20 mM MOPS pH 7.0). All kinases were pre-diluted to a 10× working concentration prior to addition into the assay. The composition of the dilution buffer for each kinase is detailed below.
(§2) In a final reaction volume of 25 μl, TrkB (h) (5-10 mU) is incubated with 8 mM MOPS pH 7.0, 0.2 mM EDTA, 0.1 mg/ml poly(Glu, Tyr) 4:1, 10 mM MgAcetate and [gamma-33P-ATP] (specific activity approx. 500 cpm/pmol, concentration as required). The reaction is initiated by the addition of the MgATP mix. After incubation for 40 minutes at room temperature, the reaction is stopped by the addition of 5 μl of a 3% phosphoric acid solution. 10 μl of the reaction is then spotted onto a Filtermat A and washed three times for 5 minutes in 75 mM phosphoric acid and once in methanol prior to drying and scintillation counting.

PKA(b) = PKA(b) (Bos taurus, UniProt P00517); experiment: Protein kinase inhibition assay; type: biochemical, bovine; conditions: read-out: percent residual activity of PKA(b)
Description: as §1
as §2, with “PKA (b)” for “TrkB (h)”, “30 μM LRRASLG (SEQ ID NO:209) (Kemptide),” for “0.1 mg/ml poly(Glu, Tyr) 4:1,”, “[y-33P-ATP]” for “[gamma-33P-ATP]”, “P30 filtermat” for “Filtermat A”, “50” for “75”

JNK2α2(h) = JNK2α2(h) (Homo sapiens, UniProt P45984); experiment: Protein kinase inhibition assay; type: biochemical; conditions: read-out: percent residual activity of JNK2α2(h)
Description: as §1
as §2, with “JNK2α2” for “TrkB”, “50” for “8”, “Tris” for “MOPS”, “7.5,” for “7.0, 0.2 mM EDTA,”, “[…], 0.1% R-mercaptoethanol, 3 μM ATF2,” for “mg/ml poly(Glu, Tyr) 4:1,”, “P30 filtermat” for “Filtermat A”

PAK2(h) = PAK2(h) (Homo sapiens, UniProt Q13177); experiment: Protein kinase inhibition assay; type: biochemical; conditions: read-out: percent residual activity of PAK2(h)
Description: as §1
as §2, with “PAK2” for “TrkB”, “30 μM […] (SEQ ID NO:222),” for “0.1 mg/ml poly(Glu, Tyr) 4:1,”, “P30 filtermat” for “Filtermat A”

Rsk1(h) = Rsk1(h) (Homo sapiens, UniProt Q15418); experiment: Protein kinase inhibition assay; type: biochemical; conditions: read-out: percent residual activity of Rsk1(h)
Description: as §1
as §2, with “Rsk1” for “TrkB”, “30 μM KKKNRTLSVA (SEQ ID NO:212),” for “0.1 mg/ml poly(Glu, Tyr) 4:1,”, “P30 filtermat” for “Filtermat A”

cells = experiment: Apoptosis by Annexin V binding (FACS); type: cell-based
Description: Apoptosis was assessed by Annexin V binding in flow cytometry fluorescence activated cell sorting (FACS) assays. In such assays, cells were harvested and washed twice in PBS (4° C.) and resuspended at a concentration of 1×10^6 cells/ml in Binding Buffer (10× solution contains 0.1M HEPES/NaOH, pH7.4; […]; 25 mM CaCl2; PharMingen, 66121A). Cells were aliquotted (100 ul) into FACS tubes with Annexin V and/or viability dye. The tube contents were mixed gently and incubated for 15 minutes at room temperature in the dark. Binding Buffer (400 ul) was added to each tube and analyzed immediately by flow cytometry.
Annexin V is available in biotin, FITC (Annexin-V-FITC; PharMingen, 65874X) and PE (Annexin-PE; PharMingen, 65875X) formats. When using Annexin-V-FITC, Propidium Iodide (PI; Sigma, P 4170) was used as the viability marker (5 ul of a 50 ug/ml stock solution). When using Annexin-V-PE, 7-AminoActinomycin D (7-AAD; Sigma, A 9400) was the preferred viability marker (1 ug/ml final concentration) as there is less spectral overlap of PE and 7-AAD than PE and PI. While 7-AAD is not as bright as PI, FITC, PE and PI can be combined effectively. Tubes contained (i) cells alone, (ii) cells+Annexin, (iii) cells+PI (or 7-AAD) or (iv) cells+Annexin+PI (or 7-AAD) in some assays.

TrkB(h), sequence (Q16620 32-822): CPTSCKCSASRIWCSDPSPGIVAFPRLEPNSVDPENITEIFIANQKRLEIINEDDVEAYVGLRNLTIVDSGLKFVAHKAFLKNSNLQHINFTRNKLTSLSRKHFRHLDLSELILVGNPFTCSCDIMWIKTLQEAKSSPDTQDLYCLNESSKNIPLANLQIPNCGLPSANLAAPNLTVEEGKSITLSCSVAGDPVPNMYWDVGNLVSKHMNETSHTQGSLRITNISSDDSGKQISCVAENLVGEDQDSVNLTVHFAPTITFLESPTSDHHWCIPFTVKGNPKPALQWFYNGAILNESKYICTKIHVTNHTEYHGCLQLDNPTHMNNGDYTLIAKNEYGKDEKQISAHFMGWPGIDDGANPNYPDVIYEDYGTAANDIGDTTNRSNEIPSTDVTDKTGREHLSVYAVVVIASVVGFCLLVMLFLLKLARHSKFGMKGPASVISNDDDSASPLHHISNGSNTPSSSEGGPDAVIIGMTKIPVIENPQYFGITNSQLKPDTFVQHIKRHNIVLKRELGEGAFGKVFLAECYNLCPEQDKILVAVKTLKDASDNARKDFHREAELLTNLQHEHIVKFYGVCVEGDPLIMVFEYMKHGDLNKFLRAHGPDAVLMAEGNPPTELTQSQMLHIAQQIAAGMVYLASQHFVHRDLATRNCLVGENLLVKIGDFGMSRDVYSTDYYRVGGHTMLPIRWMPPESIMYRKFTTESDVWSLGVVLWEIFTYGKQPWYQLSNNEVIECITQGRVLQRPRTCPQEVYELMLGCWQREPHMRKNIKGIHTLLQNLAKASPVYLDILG
JNK2α2(h), sequence (P45984 whole entry): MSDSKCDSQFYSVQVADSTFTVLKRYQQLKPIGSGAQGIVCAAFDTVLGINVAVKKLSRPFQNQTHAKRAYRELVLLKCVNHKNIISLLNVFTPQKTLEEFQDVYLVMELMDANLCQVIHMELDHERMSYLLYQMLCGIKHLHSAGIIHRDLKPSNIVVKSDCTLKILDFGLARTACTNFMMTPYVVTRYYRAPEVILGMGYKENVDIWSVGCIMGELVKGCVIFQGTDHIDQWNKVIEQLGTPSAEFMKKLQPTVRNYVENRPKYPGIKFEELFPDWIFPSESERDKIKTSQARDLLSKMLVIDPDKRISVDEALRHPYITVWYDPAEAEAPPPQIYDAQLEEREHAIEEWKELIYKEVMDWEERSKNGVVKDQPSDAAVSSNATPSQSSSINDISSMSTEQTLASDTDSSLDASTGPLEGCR
Rsk1(h), sequence (Q15418 whole entry): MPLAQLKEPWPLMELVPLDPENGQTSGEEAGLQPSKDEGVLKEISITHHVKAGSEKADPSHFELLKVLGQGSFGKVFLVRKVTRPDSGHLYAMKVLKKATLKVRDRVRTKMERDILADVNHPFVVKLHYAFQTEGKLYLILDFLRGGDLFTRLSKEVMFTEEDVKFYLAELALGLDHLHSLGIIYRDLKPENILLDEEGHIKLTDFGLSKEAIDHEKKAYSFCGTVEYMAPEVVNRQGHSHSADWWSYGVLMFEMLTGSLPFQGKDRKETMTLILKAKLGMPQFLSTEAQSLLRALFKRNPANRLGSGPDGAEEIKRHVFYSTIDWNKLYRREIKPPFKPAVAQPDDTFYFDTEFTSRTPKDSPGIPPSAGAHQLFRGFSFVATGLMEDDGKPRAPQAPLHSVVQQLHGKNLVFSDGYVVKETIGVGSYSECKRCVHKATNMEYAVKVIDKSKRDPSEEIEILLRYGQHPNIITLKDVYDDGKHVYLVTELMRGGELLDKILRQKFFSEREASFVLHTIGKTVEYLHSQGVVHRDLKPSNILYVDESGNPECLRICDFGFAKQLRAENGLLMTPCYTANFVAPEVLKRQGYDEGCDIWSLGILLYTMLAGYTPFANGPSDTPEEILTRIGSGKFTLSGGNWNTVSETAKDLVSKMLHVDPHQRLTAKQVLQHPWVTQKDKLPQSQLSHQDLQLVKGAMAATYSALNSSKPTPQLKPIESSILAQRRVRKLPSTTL
PAK2(h), sequence (Q13177 whole entry): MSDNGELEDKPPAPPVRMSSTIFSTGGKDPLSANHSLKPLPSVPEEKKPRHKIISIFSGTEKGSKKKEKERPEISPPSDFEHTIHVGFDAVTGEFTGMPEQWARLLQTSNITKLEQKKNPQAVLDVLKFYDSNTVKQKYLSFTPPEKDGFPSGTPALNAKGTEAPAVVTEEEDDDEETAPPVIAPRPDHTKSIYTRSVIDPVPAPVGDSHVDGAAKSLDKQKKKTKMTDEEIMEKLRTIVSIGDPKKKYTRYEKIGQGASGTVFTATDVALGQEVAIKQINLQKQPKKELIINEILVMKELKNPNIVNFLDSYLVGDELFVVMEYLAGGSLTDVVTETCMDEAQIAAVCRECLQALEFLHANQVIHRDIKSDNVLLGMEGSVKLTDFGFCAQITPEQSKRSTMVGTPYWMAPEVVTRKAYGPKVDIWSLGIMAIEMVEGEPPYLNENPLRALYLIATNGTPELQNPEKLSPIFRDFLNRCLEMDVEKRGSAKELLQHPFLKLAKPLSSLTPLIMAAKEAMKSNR

SMILES: CN1CCCC1CCNC(=O)c1cn2c3c(c(N4CCC(c5cnccn5)C4)c(F)cc3c1=O)Oc1cc3ccccc3cc1-2 (stereo not drawn) [Compound A-1]
- remaining activity at 2.5 µM (TrkB(h)): 44%
- remaining activity at 2.5 µM (PKA(b)): 99%
- remaining activity at 2.5 µM (JNK2α2(h)): 101%
- remaining activity at 2.5 µM (PAK2(h)): 73%
- remaining activity at 2.5 µM (Rsk1(h)): 85%
- induction of apoptosis (cells): induced apoptosis

SMILES: CC(=O)N1CCN(c2ccc3c(=O)c(C(=O)NCCN4CCCC4)c4n(C)c5ccccc5n4c3n2)CC1 [Compound B-1]
- remaining activity at 2.5 µM (TrkB(h)): 118%
- remaining activity at 2.5 µM (PKA(b)): 96%
- remaining activity at 2.5 µM (JNK2α2(h)): 106%
- remaining activity at 2.5 µM (PAK2(h)): 95%
- remaining activity at 2.5 µM (Rsk1(h)): 103%
- induction of apoptosis (cells): induced apoptosis following an efficient arrest of cell cycle progression
